Measured values as given in patent US10597396B2, “Beta-lactamase inhibitors” (Novartis AG, priority 2016, dated 2020).
Like-named read-outs stand apart in the source and are kept apart here.

Assays:
Format in all cases: cell-based
E. coli (AmpC) = assay: microbe, parasite or virus in culture; conditions: for MIC: Escherichia coli
Procedure: (§1) MICs were determined by the broth microdilution method in accordance with Clinical and Laboratories Institute (CLSI) guidelines. In brief, fresh overnight bacterial cultures were suspended in sterile saline, and adjusted to a 0.5 McFarland turbidity standard. Bacterial suspensions were then diluted in cation adjusted Mueller-Hinton Broth (MHB II; BBL) to yield a final inoculum of approximately 5×10^5 colony-forming units (CFU)/mL. A master plate of antibiotics was prepared at a concentration equivalent to hundred-fold the highest desired final concentration in 100% dimethyl sulfoxide (DMSO). The master antibiotic plate was then diluted by serial twofold dilution with a multichannel pipette. The resulting dilution series of compounds were diluted 1:10 with sterile water or a solution of beta-lactamase inhibitor prepared at a concentration equivalent to eleven-fold the desired final concentration in deionized water leading to a 10% DMSO final concentration. A volume of 10 μL of the drug dilution series was transferred to 96-well assay plates. Assay plates were inoculated with 90 μL of bacterial suspensions and incubated at 35° C. for 20 hrs. The assay plates were read using a microtiter plate reader (Molecular Devices) at 600 nm as well as by visual observation with a reading mirror. The lowest concentration of the compound that prevented visible growth was recorded as the MIC. Performance of the assay was monitored by testing aztreonam against laboratory quality control strains in accordance with guidelines of the CLSI.
(§2) Synergy or potentiation of beta-lactam antibiotics through inhibition of […] was assessed against an isogenic panel of E. coli strains, each expressing a unique beta-lactamase, and against clinical strains.
The gene encoding AmpC was PCR amplified from the genome of strain P. aeruginosa PAO1 (NB52019) (GenBank ID U5R279) using primer pair E252 (gccCTCGAGggcgaggccccggcggatcgc) (SEQ ID NO: 17) and E253 (tgaGAATTCtcagcgcttcagcggcacct) (SEQ ID NO: 18).
The PCR products were then digested with XhoI and EcoRI and ligated into similarly digested plasmid pAH63-pstS(BlaP). Plasmid pAH63-pstS(BlaP) is a derivative of plasmid pAH63 (J Bacteriol: 183(21): 6384-6393) made by cloning the TEM-1 (bla) promoter and signal peptide encoding region from plasmid pBAD (J Bacteriol. 1995 July 177(14):4121-30) into plasmid pAH63. This fragment was PCR amplified from pBAD using primer pair E192 (ttcaCTGCAGtgaacgttgcgaagcaacggC) (SEQ ID NO:19) and E194 (TCGAggatcctcgagagcaaaaacaggaaggcaaaatgccg) (SEQ ID NO:20), digested with PstI and BamHI and inserted into similarly digested plasmid pAH63. Therefore, expression of beta-lactamases from pAH63-pstS(BlaP) based constructs is constitutive and the signal sequence is provided to direct these proteins to the periplasm. […]

E. coli (OXA-18) = assay: microbe, parasite or virus in culture; conditions: for MIC: Escherichia coli
Procedure: as §1, with “MIC.” for “MIC. Performance of the assay was monitored by testing aztreonam against laboratory quality control strains in accordance with guidelines of the CLSI.”
as §2
(§3) Construction of E. coli isogenic strains, NB27273-CDY0105 (OXA-18) and NB27273-CDY0048 (TEM-10). […] The gene encoding OXA-18 was then digested with XhoI and EcoRI and inserted into this vector, from which the gene for GIM-1 had been removed with XhoI and EcoRI.
These final vectors for expression of OXA-18 and TEM-10 were transformed into BW25113 pspB to generate strains NB27273-CDY0105 (expressing OXA-18) and NB27273-CDY0048 (expressing TEM-10).

[1] = tested on: E. coli ATCC 25922, K. pneumoniae ATCC 43816, P. aeruginosa ATCC 27853; assay: Direct antibacterial activity of BLIs, summary of Table A in words; conditions: BLI alone; statement on Table A
Procedure: as §1, with “A volume of 10 μL of the drug dilution series was transferred to 96-well assay plates. Assay plates were inoculated with 90 μL of bacterial suspensions and incubated at 35° C. for 20 hrs.” left out

E. coli (CTX-M-15) = assay: microbe, parasite or virus in culture; conditions: for MIC: Escherichia coli
Procedure: as §1, with “MIC.” for “MIC. Performance of the assay was monitored by testing aztreonam against laboratory quality control strains in accordance with guidelines of the CLSI.”
as §2
(§4) Strain NB27273 (BW25113 pspB::Km^r) was obtained from the Keio transposon insertion collection. The strain has the pspB gene replaced by a kanamycin resistance marker (BW25113 pspB::Km^r). This strain was cured of the transposon in pspB via FLP recombinase using published methodology. The resulting strain, BW25113 pspB, was used as a host for multicopy vectors expressing key beta-lactamases. Multicopy plasmids directing constitutive expression of beta-lactamases were established as follows: Synthetic, codon optimized genes encoding E. coli KPC-2, SHV-12 and CTX-M-15 beta-lactamases were made by DNA2.0 (Palo Alto, Calif.). Each of the synthetic fragments were designed to contain NotI and NcoI restriction sites at their termini, allowing ligation into a NotI/NcoI digested pET28a(+) derivative for protein expression. […] The codon optimized nucleotide sequences and relevant primer recognition information is shown below:
(§5) The PCR products were then digested with XhoI and EcoRI and ligated into similarly digested plasmid pAH63-pstS(BlaP). […] Therefore, expression of beta-lactamases from pAH63-pstS(BlaP) based constructs is constitutive and the signal sequence is provided to direct these proteins to the periplasm. […] These fragments were then digested with XbaI and EcoRI, and each was inserted into pBAD18-kan that had been digested with the same enzymes to generate multicopy vectors expressing KPC-2, SHV-12 and CTX-M-15, respectively. These vectors were transformed into BW25113 pspB to generate strains NB27273-CDY0033 (expressing KPC-2), NB27273-CDY0030 (expressing SHV-12), NB27273-CDY0034 (expressing CTX-M-15) and NB27273-CDY0036 (expressing AmpC). The pBAD18-kan vector also contains the TEM promoter region and signal sequence, (but lacks any intact beta-lactamase genes) and was transformed into BW25113 pspB using standard protocols to generate the control strain NB27273-CDY0026.

E. coli (KPC-2) = assay: microbe, parasite or virus in culture; conditions: for MIC: Escherichia coli
Procedure: as §1, with “MIC.” for “MIC. Performance of the assay was monitored by testing aztreonam against laboratory quality control strains in accordance with guidelines of the CLSI.”
as §2, §4, §5

E. coli (SHV-12) = assay: microbe, parasite or virus in culture; conditions: for MIC: Escherichia coli
Procedure: as §1, with “MIC.” for “MIC. Performance of the assay was monitored by testing aztreonam against laboratory quality control strains in accordance with guidelines of the CLSI.”
as §2, §4, §5

E. coli (TEM-10) = assay: microbe, parasite or virus in culture; conditions: for MIC: Escherichia coli
Procedure: as §1, with “MIC.” for “MIC. Performance of the assay was monitored by testing aztreonam against laboratory quality control strains in accordance with guidelines of the CLSI.”
as §2, §3
From this template DNA, three fragments were generated by PCR using the following primer pairs;
This fragment was then digested with XbaI and EcoRI and inserted into pBAD-kan which was also cut with the same enzymes. […]

[2] = tested on: Enterobacter cloacae NB25055 (CMY-2); assay: Potentiation of beta-lactam MIC in beta-lactam resistant clinical isolate; conditions: read-out: Activity (MIC) of piperacillin alone
Procedure: as §1, §2

[3] = tested on: K. pneumoniae NB29082 (KPC-2); assay: as above; conditions: Klebsiella pneumoniae, read-out: Activity (MIC) of piperacillin alone
Procedure: as §1, §2

S. aureus NB01437 (BLA+) = assay: as above; conditions: Staphylococcus aureus, read-out: Activity (MIC) of piperacillin alone
Procedure: as §1, §2

[4] = tested on: K. pneumoniae NB29323 (CTX-M-15, OXA-48, VEB-1); assay: as above; conditions: Klebsiella pneumoniae, read-out: Activity (MIC) of aztreonam alone
Procedure: as §1, §2

[5] = no BLI, read-out: Activity (MIC) of Beta-Lactam 5 alone
[6] = read-out: MIC of ceftazidime alone, no BLI

O=C1NCC[C@@H]2C[C@@H]3CN(C(=O)N3OS(=O)(=O)[O-])[C@H]12.[Na+] [Example 7, Sodium (4R,5aR,9aS)-2,9-dioxooctahydro-1,4-methanopyrido[3,4-d][1,3]diazepin-3(2H)-yl hydrogen sulfate]
MIC of piperacillin in combination with the BLI (E. coli (AmpC); BLI at 2 μg/mL): 8 µg/mL | MIC of piperacillin in combination with the BLI (E. coli (OXA-18); BLI at 2 μg/mL): 8 µg/mL

CN1C[C@@H]2C[C@@H]3CN(C(=O)N3OS(=O)(=O)[O-])[C@@H]2C1=O.[Na+] [Example 2, Sodium (4R,5aS,8aS)-7-methyl-2,8-dioxohexahydro-2H-1,4-methanopyrrolo[3,4-d][1,3]diazepin-3(4H)-yl sulfate]
MIC of piperacillin in combination with the BLI (E. coli (OXA-18); BLI at 2 μg/mL): 4 µg/mL

O=C1[C@@H]2[C@@H](C[C@@H]3CN2C(=O)N3OS(=O)(=O)[O-])CN1C1CC1.[Na+] [Example 3, Sodium (4R,5aS,8aS)-7-cyclopropyl-2,8-dioxohexahydro-2H-1,4-methanopyrrolo[3,4-d][1,3]diazepin-3(4H)-yl sulfate]
MIC of piperacillin in combination with the BLI (E. coli (OXA-18); BLI at 2 μg/mL): 4 µg/mL

O=C(NC1CCNCC1)[C@@H]1CC[C@@H]2CN1C(=O)N2OS(=O)(=O)O [Relebactam]
MIC of piperacillin in combination with the BLI (E. coli (OXA-18); BLI at 2 μg/mL): >32 µg/mL

O=C1NC[C@@H]2C[C@@H]3CN(C(=O)N3OS(=O)(=O)[O-])[C@H]12.[Na+] [Example 1, Sodium (4R,5aS,8aS)-2,8-dioxohexahydro-2H-1,4-methanopyrrolo[3,4-d][1,3]diazepin-3(4H)-yl sulfate]
MIC of piperacillin in combination with the BLI (E. coli (OXA-18); BLI at 2 μg/mL): 2 µg/mL | Direct antibacterial activity of the BLI, in words [1]: does not exhibit much direct antibiotic activity

C[C@]1(Cn2ccnn2)[C@H](C(=O)O)N2C(=O)C[C@H]2S1(=O)=O [Tazobactam]
MIC of piperacillin in combination with the BLI (E. coli (OXA-18); BLI at 4 μg/mL): 8 µg/mL

Meropenem
MIC of meropenem alone (E. coli (CTX-M-15); no BLI): ≤0.06 µg/mL | MIC of meropenem alone (E. coli (KPC-2); E. coli (KPC-2), no BLI): 1 µg/mL | MIC of meropenem alone (E. coli (SHV-12); no BLI): ≤0.06 µg/mL | MIC of meropenem alone (E. coli (TEM-10); no BLI): ≤0.06 µg/mL | MIC of meropenem alone (E. coli (AmpC); no BLI): ≤0.06 µg/mL | MIC of meropenem alone (E. coli (OXA-18); no BLI): ≤0.06 µg/mL

CCN1CCN(C(=O)N[C@@H](C(=O)N[C@@H]2C(=O)N3C2SC(C)(C)[C@@H]3C(=O)O)c2ccccc2)C(=O)C1=O (some centres unmarked) [Piperacillin]
MIC [2]: > 64 µg/mL | MIC [3]: > 64 µg/mL | MIC (S. aureus NB01437 (BLA+)): 64 µg/mL

Nc1nc(/C(=N/OC2(C(=O)O)CC2)C(=O)N[C@@H]2C(=O)N(S(=O)(=O)O)[C@@H]2CN2CCOC2=O)cs1 [Beta-Lactam 5]
MIC (E. coli (CTX-M-15); [5]): 0.125 µg/mL | MIC (E. coli (KPC-2); E. coli (KPC-2), no BLI, read-out: Activity (MIC) of Beta-Lactam 5 alone): 0.25 µg/mL | MIC (E. coli (SHV-12); [5]): 0.5 µg/mL | MIC (E. coli (TEM-10); [5]): 2 µg/mL | MIC (E. coli (AmpC); [5]): 0.25 µg/mL | MIC (E. coli (OXA-18); [5]): 0.5 µg/mL

CC(C)(O/N=C(\C(=O)N[C@@H]1C(=O)N2C(C(=O)O)=C(C[n+]3ccccc3)CS[C@H]12)c1csc(N)n1)C(=O)O [Ceftazidime]
MIC (E. coli (CTX-M-15); [6]): 16 µg/mL | MIC (E. coli (KPC-2); read-out: MIC of ceftazidime alone): 4 µg/mL | MIC (E. coli (SHV-12); [6]): > 64 µg/mL | MIC (E. coli (TEM-10); [6]): > 64 µg/mL | MIC (E. coli (AmpC); [6]): 4 µg/mL | MIC (E. coli (OXA-18); [6]): > 64 µg/mL

NC(=O)[C@@H]1CC[C@@H]2CN1C(=O)N2OS(=O)(=O)O [Avibactam]
MIC of piperacillin in combination with the BLI (E. coli (OXA-18); BLI at 2 μg/mL): 2 µg/mL | Direct antibacterial activity of the BLI, in words [1]: exhibit direct antibacterial activity

C[C@H]1[C@H](NC(=O)/C(=N\OC(C)(C)C(=O)O)c2csc(N)n2)C(=O)N1S(=O)(=O)O [Aztreonam]
MIC [4]: > 64 µg/mL
